From patent US8148391B2 (Cephalon, Inc., priority 2006, dated 2012)
Where two headings read alike, the source gives them in different places.

How the values were obtained:
[1] = molecular target: T1, baculovirus-expressed ALK (Homo sapiens, UniProt Q9UM73); assay: ALK Kinase Assay (ELISA-type, time-resolved fluorescence); type: biochemical
T1 construct: host or cells: baculovirus expression system
How it was run: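 Substrate coating: phospholipase C-γ, 10 μg/mL in TBS. Kinase step: 30 ng/ml ALK, 15 min, 37° C. Detection and analysis: Eu-N1 PT66 antibody, with IC50 fitted as a sigmoidal variable-slope dose-response curve.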

[2] = molecular target: T2, c-Met (cytoplasmic domain) (Homo sapiens, UniProt P08581); assay: c-Met Kinase Assay (same methods as for ALK, with modifications); type: biochemical
T2 construct: 10 ng/mL c-Met (cytoplasmic domain, Invitrogen Corporation #PV3143); purchased Invitrogen Corporation PV3143
T2 sequence (P08581 956-1390 limits assumed): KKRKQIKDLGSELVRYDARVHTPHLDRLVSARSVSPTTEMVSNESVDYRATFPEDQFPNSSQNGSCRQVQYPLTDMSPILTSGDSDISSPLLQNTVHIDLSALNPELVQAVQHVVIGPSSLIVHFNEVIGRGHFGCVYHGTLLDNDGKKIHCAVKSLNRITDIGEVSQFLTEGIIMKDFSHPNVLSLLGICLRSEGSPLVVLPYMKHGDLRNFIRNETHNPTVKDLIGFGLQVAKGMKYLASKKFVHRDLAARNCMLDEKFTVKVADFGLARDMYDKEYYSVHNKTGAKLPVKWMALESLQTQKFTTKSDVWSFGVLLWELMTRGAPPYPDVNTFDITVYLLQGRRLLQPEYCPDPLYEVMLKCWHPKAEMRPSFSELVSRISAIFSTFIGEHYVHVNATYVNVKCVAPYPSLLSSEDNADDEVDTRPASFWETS
How it was run: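 This plate-based kinase format uses immobilized phospholipase C-γ as substrate, phosphorylated by c-Met cytoplasmic domain (10 ng/mL) at 37° C for 15 minutes.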

[3] = 1 μM ATP (Km level), 30 ng/ml ALK, 37° C., 15 minutes, read-out: ALK Activity (ALK kinase inhibition, IC50 class)
[4] = 1 μM ATP (Km level), 10 ng/mL c-Met, read-out: cMet Activity (c-Met kinase inhibition, IC50 class)
[5] = 1 μM ATP (Km level), read-out: ALK Activity (ALK Kinase Inhibition, IC50)
[6] = 1 μM ATP (Km level), read-out: cMet Activity (c-Met Kinase Inhibition, IC50)
[7] = ALK kinase inhibition, 1 μM ATP, read-out: ALK Activity
[8] = c-Met kinase inhibition, 1 μM ATP, read-out: cMet Activity

T1 sequence (Q9UM73 19-1620): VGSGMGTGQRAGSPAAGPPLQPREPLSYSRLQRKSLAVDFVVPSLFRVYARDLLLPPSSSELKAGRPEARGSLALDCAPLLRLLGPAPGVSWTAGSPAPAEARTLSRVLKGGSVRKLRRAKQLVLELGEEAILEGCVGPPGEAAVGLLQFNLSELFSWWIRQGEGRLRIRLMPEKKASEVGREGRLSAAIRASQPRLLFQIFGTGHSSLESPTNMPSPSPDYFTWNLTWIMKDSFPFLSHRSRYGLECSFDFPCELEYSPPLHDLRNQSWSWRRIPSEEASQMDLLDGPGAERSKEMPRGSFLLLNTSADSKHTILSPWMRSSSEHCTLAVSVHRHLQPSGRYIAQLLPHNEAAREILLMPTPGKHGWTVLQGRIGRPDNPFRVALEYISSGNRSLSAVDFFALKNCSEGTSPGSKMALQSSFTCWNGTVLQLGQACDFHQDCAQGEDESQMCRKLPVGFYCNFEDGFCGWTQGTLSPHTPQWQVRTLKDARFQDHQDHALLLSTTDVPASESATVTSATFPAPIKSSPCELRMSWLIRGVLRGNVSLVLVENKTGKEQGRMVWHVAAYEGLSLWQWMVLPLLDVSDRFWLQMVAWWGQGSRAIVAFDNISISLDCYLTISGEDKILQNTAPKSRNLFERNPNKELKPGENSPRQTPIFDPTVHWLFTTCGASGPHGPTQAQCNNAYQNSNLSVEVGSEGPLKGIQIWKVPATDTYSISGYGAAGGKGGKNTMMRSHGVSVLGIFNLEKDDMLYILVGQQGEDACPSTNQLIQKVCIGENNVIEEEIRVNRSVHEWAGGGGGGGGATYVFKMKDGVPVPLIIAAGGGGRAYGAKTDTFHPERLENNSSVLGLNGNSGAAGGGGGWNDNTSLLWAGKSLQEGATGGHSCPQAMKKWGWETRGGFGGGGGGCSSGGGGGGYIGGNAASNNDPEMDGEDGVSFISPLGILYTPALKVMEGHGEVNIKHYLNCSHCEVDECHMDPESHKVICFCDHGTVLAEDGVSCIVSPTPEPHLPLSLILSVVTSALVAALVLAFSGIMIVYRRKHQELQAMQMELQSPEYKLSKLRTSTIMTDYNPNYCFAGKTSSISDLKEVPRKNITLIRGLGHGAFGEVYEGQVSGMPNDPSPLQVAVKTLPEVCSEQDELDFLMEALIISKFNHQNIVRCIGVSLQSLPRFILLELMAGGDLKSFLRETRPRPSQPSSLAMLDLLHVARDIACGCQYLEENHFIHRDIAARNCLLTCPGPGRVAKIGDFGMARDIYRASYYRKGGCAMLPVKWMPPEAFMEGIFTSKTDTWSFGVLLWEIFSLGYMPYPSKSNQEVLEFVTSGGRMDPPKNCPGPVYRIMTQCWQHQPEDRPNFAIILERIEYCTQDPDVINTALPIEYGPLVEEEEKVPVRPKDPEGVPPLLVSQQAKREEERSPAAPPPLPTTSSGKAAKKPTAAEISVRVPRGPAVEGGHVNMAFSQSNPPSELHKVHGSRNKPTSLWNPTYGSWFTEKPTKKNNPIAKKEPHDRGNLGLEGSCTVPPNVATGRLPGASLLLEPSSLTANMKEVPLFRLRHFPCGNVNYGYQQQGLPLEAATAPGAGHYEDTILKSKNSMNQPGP

Row | IC50 [1, 5] [nM] | IC50 [2, 6] [nM] | SMILES | further results
1 |  |  | COc1cc2c(cc1Nc1ncc(Cl)c(Nc3ccccc3S(=O)(=O)C(C)C)n1)CCN(C(CF)CF)CC2 [Example 1394, Chloro-N(2)-[3-(2-fluoro-1-fluoromethyl-ethyl)-8-methoxy-2,3,4,5-tetrahydro-1H-benzo[d]azepin-7-yl]-N(4)-[2-(propane-2-sulfonyl)-phenyl]-pyrimidine-2,4-diamine] | IC50 [1, 3]: < 100 nM; IC50 [2, 4]: > 10000 nM
2 | < 100 | > 10000 | COCCNC1CCc2ccc(Nc3ncc(Cl)c(N[C@@H]4CCCC[C@H]4NS(C)(=O)=O)n3)c(OC)c2CC1 (single isomer, unassigned) [Example 694] | 
3 | 100 to 1000 | > 10000 | CNC(=O)c1ccccc1Nc1nc(Nc2cccc3c2N(C)CCN(C)C3=O)ncc1Cl [Example 541, 2-[5-Chloro-2-(1,4-dimethyl-5-oxo-2,3,4,5-tetrahydro-1H-benzo[e][1,4]diazepin-9-ylamino)-pyrimidin-4-ylamino]-N-methyl-benzamide] | 
4 |  |  | C#CCNC(=O)c1ccccc1Nc1nc(Nc2ccc3c(c2)CCN(CCOC)CC3)ncc1Cl [Example 1387, 2-{5-Chloro-2-[3-(2-methoxy-ethyl)-2,3,4,5-tetrahydro-1H-benzo[d]azepin-7-ylamino]-pyrimidin-4-ylamino}-N-prop-2-ynyl-benzamide] | IC50 [1, 3]: < 100 nM; IC50 [2, 4]: < 100 nM
5 | < 100 | < 100 | CN1C(=O)CCCc2cc(Nc3ncc(Cl)c(Nc4ccccc4C(=O)NCCC#N)n3)ccc21 [Example 871, 2-[5-Chloro-2-(1-methyl-2-oxo-2,3,4,5-tetrahydro-1H-benzo[b]azepin-7-ylamino)-pyrimidin-4-ylamino]-N-(2-cyano-ethyl)-benzamide] | 
6 | < 100 | 1000 to 10000 | CN1CCN(c2ccc(Nc3nc(Nc4ccc5c(c4)C(C)(C)CCC(=O)N5)ncc3Cl)c(-n3cccn3)c2)CC1 [Example 628, 7-{5-Chloro-4-[4-(4-methyl-piperazin-1-yl)-2-pyrazol-1-yl-phenylamino]-pyrimidin-2-ylamino}-5,5-dimethyl-1,3,4,5-tetrahydro-benzo[b]azepin-2-one] | 
7 | < 100 | < 100 | CNC(=O)c1ccccc1Nc1nc(Nc2ccc3c(c2)CCCC(=O)N3CCOC)ncc1C(F)(F)F [Example 921, 2-{2-[1-(2-Methoxyethyl)-2-oxo-2,3,4,5-tetrahydro-1H-benzo[b]azepin-7-ylamino]-5-trifluoromethylpyrimidin-4-ylamino}-N-methylbenzamide] | 
8 |  |  | CNC(=O)c1cccc(C)c1Nc1nc(Nc2ccc3c(c2)CCC(=O)NC3(C)C)ncc1Cl [Example 1830, 2-(5-Chloro-2-(1,1-dimethyl-3-oxo-2,3,4,5-tetrahydro-1H-benzo[c]azepin-7-ylamino)pyrimidin-4-ylamino)-N,3-dimethylbenzamide] | IC50 [1, 7]: 1000 to 10000 nM; IC50 [2, 8]: < 100 nM
9 |  |  | CS(=O)(=O)N[C@@H]1CCCC[C@H]1Nc1nc(Nc2ccc3c(c2)CNC(=O)NC3)ncc1Cl [Example 226, N-{(1R,2R)-2-[5-Chloro-2-(3-oxo-2,3,4,5-tetrahydro-1H-benzo[e][1,3]diazepin-7-ylamino)-pyrimidin-4-ylamino]-cyclohexyl}-methanesulfonamide] | IC50 ([1]; ALK kinase inhibition, 1 μM ATP (Km level), read-out: ALK Activity): < 100 nM; IC50 ([2]; c-Met kinase inhibition, 1 μM ATP (Km level), read-out: cMet Activity): 1000 to 10000 nM
10 |  |  | COc1cc2c(cc1Nc1ncc(Cl)c(N[C@@H]3CCCC[C@H]3NS(C)(=O)=O)n1)NC(=O)CN(CC1CC1)C2 [Example 1666, N-(1R,2R)-{2-[5-Chloro-2-(4-cyclopropylmethyl-7-methoxy-2-oxo-2,3,4,5-tetrahydro-1H-benzo[e][1,4]diazepin-8-ylamino)-pyrimidin-4-ylamino]-cyclohexyl}-methanesulfonamide] | IC50 [1, 7]: < 100 nM; IC50 [2, 8]: > 10000 nM
11 | < 100 | 100 to 1000 | CCN1CCc2ccc(Nc3ncc(Cl)c(Nc4cccc(OCC#N)c4)n3)cc2CC1 [Example 927, {3-[5-Chloro-2-(3-ethyl-2,3,4,5-tetrahydro-1H-benzo[d]azepin-7-ylamino)-pyrimidin-4-ylamino]-phenoxy}-acetonitrile] | 
